Results taken from patent US7579006B2, “Method of treating immune pathologies with low dose estrogen” (Oregon Health and Science University, priority 2000, dated 2009).
Values joined by “and” are separate entries in the source; they are usually repeats but may differ in a detail not shown here. Equal values may be shown once. Read-outs that look alike come from different tables or passages of the source.

Tests used:
[1] = system: spinal cord mononuclear cells; assay: Mononuclear cell infiltration into spinal cords of Tg females with EAE; assay type: in vivo, mice; settings: 0.36 mg pellet
Description: Induction of active EAE. EAE was induced, and disease assessed, essentially as described in Example II. Disease onset was defined as the first day of clinical signs, peak—acute phase of EAE—as maximum severity of clinical signs (day 16-17 after immunization with encephalitogenic peptide) and recovery as day 28 post-immunization, when clinical severity of EAE was diminished. The cumulative disease index (CDI) was determined for each mouse by summing the daily clinical scores. Mice selected from control, ovariectomized, and 17β-estradiol treated groups were sacrificed and spinal cords were isolated by insufflation and frozen at −70 C or mononuclear cells were isolated over a Percoll step gradient and counted as described in Offner et al., J. Immunol. 161:2178-2186 (1998). Lymph nodes (LN) or spleens (SPL) were removed surgically and passed through a wire mesh screen to obtain a single-cell suspension. Frozen spinal cords were subsequently thawed and evaluated for expression of chemokines, chemokine receptors and cytokines by the RNase protection assay.

[2] = system: T cells from naïve BV8S2 transgenic female mice; assay: In vitro effect of 17β-estradiol on T cells from naïve BV8S2 transgenic female mice; assay type: cell-based
Description: Proliferation assay. Proliferation responses of splenic T cells were determined essentially as described in Example II, except that antigen was used at an optimal concentration of 50 μg/ml.
Measurement of cytokine secretion. Lymph nodes of naïve BV8S2 TCR transgenic females were suspended at 4×10^6 cells/ml in stimulation medium with antigen and with or without 2000 pg/ml of 17β-estradiol. Cell culture supernatants were recovered at 72 hours and frozen at −70 C until used. Measurement of cytokines was performed by ELISA essentially as described in Example II.
To evaluate 17β-estradiol effects on antigen specific T cells, splenocytes from naïve BV8S2 single transgenic female mice were stimulated with MBP-Ac1-11 peptide or BV8S2 protein in the presence or absence of a range of 17β-estradiol concentrations.

IL-10 KO mice = assay: EAE induced with MOG 35-55 in IL-10 KO mice (clinical, histopathology); assay type: in vivo; settings: 2.5 mg pellet
Description: Estrogen treatment. Sixty-day release pellets containing 2.5 mg of 17β-estradiol (E2) or vehicle were implanted subcutaneously (s.c) in the scapular region behind the neck using a 12-gauge trochar as described by the manufacturer (Innovative Research of America, Sarasota, Fla.). The mice were implanted one week prior to immunization with MOG 35-55. The concentration of E2 expected in the serum is between 1,500-2,000 pg/ml, which is approximately 5 times less than the levels found during pregnancy.
Induction of EAE. C57BL/6 and cytokine deficient mice were inoculated s.c in the flanks with 0.2 ml of an emulsion containing 200 μg of MOG 35-55 in saline and an equal volume of complete Freund's Adjuvant (CFA) containing 400 μg of Mycobacterium tuberculosis H37RA (Difco Laboratories, Detroit, Mich.). Disease induction required i.v. administration of pertussis toxin on the day of immunization (25 ng/mouse) and 2 days later (67 ng/mouse). The mice were assessed daily for clinical signs of EAE according to the 7 point scale described in Example I.
Histopathology. Histopathologic assessment of spinal column section was performed essentially as described in Example I, except that sections were stained with either luxol fast blue-periodic acid schiff-hematoxylin or silver nitrate prior to analysis.
Statistical analysis. Significant differences in incidence and mortality between untreated and E2 treated mice were assessed by Chi-square analysis. Difference in onset was determined using the two-tailed Student t test. Differences in peak score and cumulative disease index (CDI) were assessed by the Mann-Whitney test. Statistical significance of the frequency of cytokine secreting cells was analyzed using Student's t test for comparisons of two means. Differences in the expression of chemokine and cytokine mRNA were also determined using the Student t test. Values of p<0.05 were considered significant.

Vβ8.2+/CD4+ T CELLS = assay: Flow cytometry of adhesion and activation antigens on LN Vβ8.2+/CD4+ T cells; assay type: in vivo, mice; settings: E2 treated
Description: The regulation of cell adhesion molecules is another possible mechanism by which estrogen treatment controls the migration of inflammatory cells into the CNS. The expression of cell surface adhesion and activation/memory antigens was determined by staining with fluorochrome-labeled antibodies and flow cytometry. No significant differences in the expression of VLA-4, CD44, or CD62L were detected between LN cells from E2 versus control mice with EAE (Table 18). Furthermore, no differences in activation markers (CD69, CD25, FASL, CD40L, CD28) were seen.

CNS mononuclear cells = assay: Intracellular cytokine staining of CNS mononuclear cells; assay type: in vivo, mice; settings: 2.5 mg pellet
Source text: CNS mononuclear cells were isolated from perfused brain and spinal cord by percol gradient centrifugation as described in Bebo et al., J. Neurosci. Res. 52:420-429 (1998). The cells were stimulated with MOG-35-55 peptide for 24 hrs, the last 5 hrs in the presence of Brefeldin A. The cells were then stained with anti-CD4 cychrome labeled antibodies prior to fixation and permeabilization. The cells were subsequently stained with Vβ8.1/8.2 TCR-FITC and the indicated cytokine specific antibody coupled to PE and analyzed by three-color flow cytometry. For each experiment the cells were stained with isotype control antibodies to establish background staining and to set the quadrants prior to calculating the percent positive cells.
Intracellular staining of CNS mononuclear cells with anti-cytokine antibodies was also performed. Mononuclear cells were recovered from the brain and spinal cords of perfused mice at the peak of clinical disease. […] These cells were stained with anti-CD4 cychrome labeled antibodies and the frequency of cytokine producing Vβ8.2+ helper T cells was measured by staining with anti-Vβ8.2-FITC and PE-labeled cytokine specific antibodies.

[3] = cited from earlier work
[4] = single experiments (Exp #1-#2), listed as E2
[5] = single experiments (Exp #1-#3), listed as E2

In the case of `C[C@]12CC[C@@H]3c4ccc(O)cc4CC[C@H]3[C@@H]1CC[C@@H]2O` [17β-estradiol], the “Mean clinical score at time of cord removal” value [1] is reported as 1.3, the Number of cells/cord [1] is reported as 10000 cells/cord and the “prevention of infiltration of mononuclear cells into spinal cords” value [1] is reported as “approximately 60%”. The “IL-12 or IL-10 secretion” value ([2]; in vitro, 2,000 pg/ml, MBP-Ac1-11 stimulated LN cells) was “no effects”, the “reduction of secreted IFN-γ protein” value ([2]; in vitro, 2,000 pg/ml, MBP-Ac1-11 stimulated LN cells, p<0.005) was 50% and the “native T cell proliferation response to MBP-Ac1-11 peptide” value ([2]; in vitro, 15-2,000 pg/ml) was “no significant effect”. For the same compound, the “native proliferation response to BV8S2 protein” value ([2]; in vitro, 15-2,000 pg/ml) was “modest enhancing effect”, the “IFN-γ or other cytokine secretion” value ([2]; in vitro, lower doses (150-400 pg/ml)) was “no inhibitory effects” and the CDI (IL-10 KO mice; IL-10 KO) was 6.5 ± 10.9. The Incidence (IL-10 KO mice; IL-10 KO) was 6/17, the Mortality (IL-10 KO mice; IL-10 KO) was 0/17 and the Onset (IL-10 KO mice; IL-10 KO) was 22.0 ± 4.3. For the same compound, the “Peak Score” value (IL-10 KO mice; IL-10 KO) was 4.2 ± 0.8, the “Inflammatory foci/section” value (IL-10 KO mice; IL-10KO, spinal cord) was 0.0 ± 0.0 Foci/Section and the “CD28, % of Vβ8.2+/CD4+ T CELLS” value (Vβ8.2+/CD4+ T CELLS; Exp #1) was 4.5%. The “CD40L, % of Vβ8.2+/CD4+ T CELLS” value (Vβ8.2+/CD4+ T CELLS; Exp #1) was 0%, the “CD62lo, % of Vβ8.2+/CD4+ T CELLS” value (Vβ8.2+/CD4+ T CELLS; Exp #1) was 47.3% and the “CD25, % of Vβ8.2+/CD4+ T CELLS, mean” value (Vβ8.2+/CD4+ T CELLS; mean of experiments) was 7.4 ± 4.3%. The “CD44hi, % of Vβ8.2+/CD4+ T CELLS, mean” value (Vβ8.2+/CD4+ T CELLS; mean of experiments) was 55.8 ± 13.8%, the “CD69, % of Vβ8.2+/CD4+ T CELLS, mean” value (Vβ8.2+/CD4+ T CELLS; mean of experiments) was 21.6 ± 5.8% and the “FASL, % of Vβ8.2+/CD4+ T CELLS, mean” value (Vβ8.2+/CD4+ T CELLS; mean of experiments) was 1.6 ± 2.1%. For the same compound, the “VLA-4, % of Vβ8.2+/CD4+ T CELLS, mean” value (Vβ8.2+/CD4+ T CELLS; mean of experiments) was 57.5 ± 7.4%, the “CD25, % of Vβ8.2+/CD4+ T CELLS” value (Vβ8.2+/CD4+ T CELLS; [4]) was 4.3% and 10.4% and the “CD69, % of Vβ8.2+/CD4+ T CELLS” value (Vβ8.2+/CD4+ T CELLS; [4]) was 17.5% and 25.7%. For the same compound, the “FASL, % of Vβ8.2+/CD4+ T CELLS” value (Vβ8.2+/CD4+ T CELLS; [4]) was 0.1% and 3.1%, the “CD44hi, % of Vβ8.2+/CD4+ T CELLS” value (Vβ8.2+/CD4+ T CELLS; [5]) was 68.8% and 41.2% and 57.3% and the “VLA-4, % of Vβ8.2+/CD4+ T CELLS” value (Vβ8.2+/CD4+ T CELLS; [5]) was 64.2% and 58.7% and 49.6%. The “frequency and staining intensity of TNF-α and IFN-γ producing CD4+ T cells in the CNS” value (CNS mononuclear cells; p<0.0001) was “dramatic reduction”, the “total number of mononuclear cells recovered from perfused CNS, untreated relative to E2 treated mice” value (CNS mononuclear cells; peak of clinical disease) was 4-5 times higher and the “pro-inflammatory cytokine producing CD4+ Vβ8.2+ T cells in CNS” value (CNS mononuclear cells; untreated 29,000 cells/mouse) was 390 cells/mouse. For the same compound, the “serum concentration from 60-day release pellet” value (“serum concentration” below) ([3]; 0.025 mg pellet) was 5 to 10 pg/mL, the “serum concentration” value ([3]; 0.1 mg pellet) was 25 to 50 pg/mL and the “serum concentration” value ([3]; 0.36 mg pellet) was 150 to 200 pg/mL. For the same compound, the “serum concentration” value ([3]; 1.5 mg pellet) was 800-1,000 pg/ml, the “serum concentration” value ([3]; 2.5 mg pellet) was 1,500-2,000 pg/ml and the “serum concentration” value ([3]; 5 mg pellet) was 3,000-4,000 pg/ml. The “serum concentration” value ([3]; 15 mg pellet) was 9,000-10,000 pg/ml.
